Results published in patent US12485121B2, “Antiviral agents for the treatment and prevention of HIV infection” (Pharmasyntez, Joint Stock Company, priority 2020, dated 2025).

These molecules were tested on HIV-1 subtype A strain 12RU 69831 (assay: Inhibition of HIV-1 reproduction / protection of infected MT-4 cells (living cell concentration, p24 production)). Settings: Human immunodeficiency virus 1, MT4, MT-4 cells infected with HIV-1 at a constant virus dose of 300 CCID50; read-out: Activity against HIV-1 12RU 69831 strain (subtype A).
Assay type: cell-based
How it was run: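 MT-4 cells infected with HIV-1 subtype A 12RU 69831 at a constant 300 CCID50 dose and treated with various compound concentrations. Protection measured as change in living cell concentration; viral replication measured as p24 production.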

| IC50 [µM] | SMILES |
| --- | --- |
| 359 | Cc1cc(C#N)cc(C)c1Oc1nc(Nc2ccc(C#N)cc2)nc2c1CN(S(N)(=O)=O)CC2 [BB0274239, 4-(4-Cyano-2,6-dimethylphenoxy)-2-[(4-cyanophenyl)amino]-5H,6H,7H,8H-pyrido[4,3-d]pyrimidine-6-sulfonamide] |
| 34.8 | COC(=O)C(=O)N1CCc2nc(Nc3ccc(C#N)cc3)nc(Oc3c(C)cc(C=O)cc3C)c2CC1 [BB0274312, Methyl 2-{2-[(4-cyanophenyl)amino]-4-(4-formyl-2,6-dimethylphenoxy)-5H,6H,7H,8H,9H-pyrimido [4,5-d]azepine-7-yl}-2-oxoacetate] |
| 205 | Cc1cc(C#N)cc(C)c1OC1=NC(Nc2ccc(C#N)cc2)=NC2CCN(C(=O)NC3CCOCC3)CC12 (stereo not shown) [BB0274337, 4-(4-Cyano-2,6-dimethylphenoxy)-2-[(4-cyanophenyl)amino]-N-(oxan-4-yl)-4aH,5H,6H,7H,8H,8aH-pyrido [4,3-d]pyrimidine-6-carboxamide] |
| 0.032 | Cc1cc(C#N)cc(C)c1Oc1nc(Nc2ccc(C#N)cc2)nc2c1CN(C(=O)C(N)Cc1cnc[nH]1)CC2 (stereo not shown) [BB0275622, 4-({6-[2-Amino-3-(1H-imidazole-5-yl)propanoyl]-2-[(4-cyanophenyl)amino]-5H,6H,7H,8H-pyrido[4,3-d]pyrimidine-4-yl}oxy)-3,5-dimethylbenzonitrile] |
